The results in this text go back to ChEMBL document CHEMBL1201862, “PubChem BioAssay data set” (2004).

Among the test systems are A498; CAKI-1; CCRF-CEM; HCT-15; IGROV-1; M14; NCI-H460; OVCAR-4; OVCAR-5; SK-MEL-5; SN12C; SNB-19; SR; SW-620; UACC-257; UO-31; HCC 2998; NCI-H226.
What all share (test): NCI-60 cell line screen, 48 h

Molecules are shown by their SMILES.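 A five-concentration, 48-hour dose response in 96-well plates underlies each endpoint, interpolated linearly between surrounding concentrations. The concentration for 50% growth inhibition is given as GI50.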 Activity calls are given as the source filed them. Cut-off read from the data, not from the text of the source: active = GI50 up to about 1.1 µM and inactive = higher. Some results are limits rather than exact numbers.

As to `NC1C2(CCCCCC2)NC(=O)C12CCCCCC2` (stereo not drawn), the GI50 in the test with A498 is > 100 µM (inactive); with CAKI-1, > 100 µM (inactive); with CCRF-CEM, > 100 µM (inactive); in the test on HCT-15 it was more than 100 µM; in the test with IGROV-1 it was > 100 µM (inactive); in the test with M14, > 100 µM (inactive). Also, the GI50 in the test with NCI-H460, with OVCAR-4, in the test with OVCAR-5, with SK-MEL-5, in the test on SN12C and in the test with SNB-19 was > 100 µM (inactive) each time. For the same molecule, the GI50 with SR, with SW-620, in the test on UACC-257 and with UO-31 was > 100 µM (inactive) in each case.
Regarding `COC(=O)CCC1=NOC(CC2CC(CCC(=O)OC)=NO2)C1` (stereo not drawn), the GI50 in the test with A498 is > 100 µM (inactive); in the test on CAKI-1, > 100 µM (inactive); in the test with CCRF-CEM, > 100 µM (inactive); in the test on HCC 2998 it was > 100 µM (inactive); in the test on HCT-15, more than 100 µM; in the test with IGROV-1, > 100 µM (inactive). The GI50 with M14, in the test on NCI-H226, in the test with NCI-H460, in the test with OVCAR-4, in the test on OVCAR-5 and with SK-MEL-5 was > 100 µM (inactive) each time. The GI50 with SN12C, in the test with SNB-19, with SW-620, with UACC-257 and in the test on UO-31 was > 100 µM (inactive) throughout.
On to `O=C(Cc1ccccc1)NN1C(=O)C(Cl)C1c1ccccc1O` (stereo not drawn), for which the GI50 is 40.2 µM (inactive) in the test with CAKI-1; 3.17 µM (inactive) with CCRF-CEM; 20.3 µM (inactive) with HCC 2998; 5.85 µM in the test on HCT-15; 25.8 µM (inactive) with IGROV-1; 14.1 µM (inactive) in the test with M14. For the same molecule, the GI50 was 10 µM (inactive) in the test with NCI-H226; 4.62 µM (inactive) with NCI-H460; 8.81 µM (inactive) in the test on OVCAR-4; 15.4 µM (inactive) in the test on OVCAR-5; 27.9 µM (inactive) with SN12C; 16.9 µM (inactive) in the test on SNB-19. Also, the GI50 in the test with SR was 3.98 µM (inactive); in the test with SW-620 it was 15.8 µM (inactive); with UACC-257 it was 11.4 µM (inactive); in the test on UO-31 it was 4.54 µM (inactive).
Regarding `O=C(Cc1nc(-c2ccccc2)cc(=O)n1-c1ccccc1Cl)c1ccncc1`, the GI50 in the test on A498 was > 100 µM (inactive); in the test with CAKI-1, > 100 µM (inactive); with CCRF-CEM, > 100 µM (inactive); in the test on HCC 2998, > 100 µM (inactive); with HCT-15, more than 100 µM; with IGROV-1 it was > 100 µM (inactive). Further, the GI50 with M14, with NCI-H226, in the test on NCI-H460, in the test on OVCAR-4, in the test on OVCAR-5 and in the test on SK-MEL-5 was > 100 µM (inactive) throughout. Further, the GI50 in the test with SN12C, with SNB-19, in the test on SW-620, in the test on UACC-257 and in the test on UO-31 was > 100 µM (inactive) throughout.
Consider `COc1ccc2nc3cc(Cl)ccc3c(SCC(=O)Nc3ccccc3-c3ccccc3NC(=O)CSc3c4ccc(Cl)cc4nc4ccc(OC)cc34)c2c1`, for which the GI50 in the test with A498 was > 100 µM (inactive); in the test with CAKI-1 it was > 100 µM (inactive); with CCRF-CEM, > 100 µM (inactive); in the test on HCC 2998, > 100 µM (inactive); in the test with HCT-15, more than 100 µM; in the test with IGROV-1 it was > 100 µM (inactive). Besides, the GI50 in the test on M14, in the test with NCI-H226, with NCI-H460, with OVCAR-4, in the test with OVCAR-5 and in the test on SK-MEL-5 was > 100 µM (inactive) each time. Also, the GI50 in the test with SN12C, with SNB-19, in the test on SW-620, in the test on UACC-257 and in the test on UO-31 was > 100 µM (inactive) throughout.
Turning to `O=C1NC(=O)c2c1n(Cc1ccccc1)c(=O)n2Cc1ccccc1`, the GI50 is 30.4 µM (inactive) in the test on A498; > 100 µM (inactive) with CAKI-1; > 100 µM (inactive) with CCRF-CEM; > 100 µM (inactive) in the test with HCC 2998; 77.8 µM with HCT-15; > 100 µM (inactive) in the test with IGROV-1. Besides, the GI50 is > 100 µM (inactive) in the test on M14; > 100 µM (inactive) with NCI-H226; 86.7 µM (inactive) in the test with NCI-H460; > 100 µM (inactive) with OVCAR-4; > 100 µM (inactive) in the test with OVCAR-5; > 100 µM (inactive) in the test with SK-MEL-5. In addition, the GI50 in the test with SN12C, in the test on SNB-19, in the test on SW-620, with UACC-257 and with UO-31 was > 100 µM (inactive) each time.
For the molecule `C[N+]1=c2c3cccc4cccc(c(=O)n2CCC1)c43`, the GI50 is 18.5 µM (inactive) with A498; 31 µM (inactive) with CAKI-1; 3.13 µM (inactive) in the test on CCRF-CEM; 35.6 µM in the test on HCT-15; 36 µM (inactive) in the test with IGROV-1; 17.2 µM (inactive) in the test with M14. The GI50 in the test on NCI-H226 is 18.4 µM (inactive); with NCI-H460, 18.2 µM (inactive); with OVCAR-4, 18.9 µM (inactive); in the test on OVCAR-5, 17.8 µM (inactive); in the test with SK-MEL-5 it was 17.9 µM (inactive); in the test on SN12C, 21 µM (inactive). The GI50 in the test with SR was 18.2 µM (inactive); in the test with SW-620, 25.2 µM (inactive); with UACC-257 it was 17.3 µM (inactive); in the test with UO-31, 17.9 µM (inactive).
Consider `Cc1ccc(S(=O)(=O)Nc2cccc(C)c2C)cc1`, for which the GI50 in the test on A498 is > 100 µM (inactive); with CCRF-CEM, 40.5 µM (inactive); in the test on HCC 2998 it was > 100 µM (inactive); with HCT-15, 41.1 µM; with IGROV-1 it was 82.4 µM (inactive); with M14 it was 37.9 µM (inactive). In addition, the GI50 is 56.4 µM (inactive) in the test on NCI-H226; 46.6 µM (inactive) in the test on NCI-H460; 19.5 µM (inactive) with OVCAR-4; 57.7 µM (inactive) in the test on OVCAR-5; 31.2 µM (inactive) in the test with SK-MEL-5; 55.1 µM (inactive) with SN12C. For the same molecule, the GI50 is > 100 µM (inactive) in the test with SNB-19; 52.5 µM (inactive) in the test with SR; 86.7 µM (inactive) in the test with SW-620; 30.8 µM (inactive) in the test on UACC-257; 30.8 µM (inactive) in the test on UO-31.
On to `COC(=O)c1c(O)ccc(O)c1C(C(C)=O)C(C)=O`, for which the GI50 was > 100 µM (inactive) in the test with A498; > 100 µM (inactive) with CAKI-1; > 100 µM (inactive) in the test with CCRF-CEM; > 100 µM (inactive) with HCC 2998; more than 100 µM in the test on HCT-15; > 100 µM (inactive) in the test on IGROV-1. Also, the GI50 with M14, in the test with NCI-H460, with OVCAR-4, in the test with SK-MEL-5, in the test on SN12C and in the test with SNB-19 was > 100 µM (inactive) throughout. Besides, the GI50 in the test with SW-620, in the test with UACC-257 and in the test with UO-31 was > 100 µM (inactive) each time.
Take `CC1=C(C(=O)Nc2ccccc2C)C(c2ccccc2C)C(C(=O)Nc2ccccc2C)=C(C)N1`: the GI50 with A498 is 16.8 µM (inactive); with HCC 2998, 18.5 µM (inactive); in the test with HCT-15 it was 18.7 µM; with IGROV-1, 18.5 µM (inactive); in the test with NCI-H226, 21.5 µM (inactive); in the test on NCI-H460, 22.6 µM (inactive). Also, the GI50 was 24.4 µM (inactive) in the test on OVCAR-4; 23.3 µM (inactive) in the test with OVCAR-5; 18 µM (inactive) in the test with SN12C; 22.6 µM (inactive) in the test with SNB-19; 24.2 µM (inactive) in the test with SR; 18.1 µM (inactive) in the test with SW-620. In addition, the GI50 in the test with UACC-257 was 27.5 µM (inactive); in the test on UO-31, 14.5 µM (inactive).
Take `CNC1=Nc2ccc(Cl)cc2C(c2ccccc2)=NN1C`: the GI50 was 91.2 µM (inactive) in the test with A498; 28.5 µM (inactive) with CAKI-1; 83.8 µM (inactive) in the test with CCRF-CEM; 24.9 µM (inactive) with HCC 2998; more than 100 µM in the test on HCT-15; > 100 µM (inactive) in the test on IGROV-1. For the same molecule, the GI50 was > 100 µM (inactive) in the test with M14; > 100 µM (inactive) in the test with NCI-H226; > 100 µM (inactive) with NCI-H460; > 100 µM (inactive) with OVCAR-4; > 100 µM (inactive) in the test on OVCAR-5; 49.1 µM (inactive) in the test with SK-MEL-5. Further, the GI50 in the test with SN12C was > 100 µM (inactive); in the test with SNB-19, > 100 µM (inactive); in the test with SW-620, > 100 µM (inactive); in the test with UACC-257, 83 µM (inactive); in the test on UO-31, 35.5 µM (inactive).
In the case of `C[N+]12c3ccccc3O[B-]1(c1ccccc1)Oc1ccccc12` (stereo not drawn), the GI50 with A498 is > 100 µM (inactive); in the test on CAKI-1 it was 63.1 µM (inactive); in the test with CCRF-CEM it was 11.9 µM (inactive); in the test on IGROV-1, 25.4 µM (inactive); in the test with M14, 15 µM (inactive); in the test with NCI-H226 it was 32.8 µM (inactive). The GI50 with OVCAR-4 is 31.6 µM (inactive); in the test with OVCAR-5, 77.4 µM (inactive); with SK-MEL-5 it was 36.2 µM (inactive); with SN12C, 31.9 µM (inactive); in the test on SNB-19 it was 66.1 µM (inactive); with SR, 10.9 µM (inactive). Also, the GI50 in the test on SW-620 was 28.1 µM (inactive); in the test with UACC-257, 27.1 µM (inactive).
